Results as given in the NIST ThermoML archive (doi:10.1021/je8006474).

Key:
[1] = 101.33 kPa, Liquid, Pycnometric method
[2] = xn = mol fraction of the nth substance listed; conditions: Pycnometric method

Fc1ccc(F)c(F)c1F [1,2,3,4-tetrafluorobenzene]
[1]
Conditions | mass density [kg/m3]
296.4 K | 1408
327.4 K | 1360

Fc1cc(F)c(F)c(F)c1 [1,2,3,5-tetrafluorobenzene]
[1]
Conditions | mass density [kg/m3]
296.3 K | 1403
325.9 K | 1352

Fc1cc(F)c(F)c(F)c1 [1,2,3,5-tetrafluorobenzene] + CCn1cc[n+](C)c1.O=S(=O)([N-]S(=O)(=O)C(F)(F)F)C(F)(F)F
[2]
Conditions | molar volume [m3/mol]
283.5 K, Liquid mixture 1, x1 = 0.659 | 0.0001523
283.5 K, Liquid mixture 2, x1 = 1 | 0.0001053
298.3 K, Liquid mixture 1, x1 = 0.652 | 0.0001562
298.3 K, Liquid mixture 2, x1 = 1 | 0.0001069
316.7 K, Liquid mixture 1, x1 = 0.647 | 0.0001579
316.7 K, Liquid mixture 2, x1 = 1 | 0.0001096
333.2 K, Liquid mixture 1, x1 = 0.638 | 0.0001605
333.2 K, Liquid mixture 2, x1 = 1 | 0.0001119
353.1 K, Liquid mixture 1, x1 = 0.631 | 0.000164
353.1 K, Liquid mixture 2, x1 = 1 | 0.0001149
373 K, Liquid mixture 1, x1 = 0.623 | 0.0001688
373 K, Liquid mixture 2, x1 = 1 | 0.000118

Fc1cccc(F)c1F [1,2,3-trifluorobenzene]
[1]
Conditions | mass density [kg/m3]
296 K | 1292
331.6 K | 1240

Fc1cc(F)c(F)cc1F [1,2,4,5-tetrafluorobenzene]
[1]
Conditions | mass density [kg/m3]
296.7 K | 1421
327.4 K | 1370

Fc1cc(F)c(F)cc1F [1,2,4,5-tetrafluorobenzene] + CCn1cc[n+](C)c1.O=S(=O)([N-]S(=O)(=O)C(F)(F)F)C(F)(F)F
[2]
Conditions | molar volume [m3/mol]
283.3 K, Liquid mixture 1, x1 = 0.736 | 0.0001422
283.3 K, Liquid mixture 2, x1 = 0.999 | 0.000103
298.2 K, Liquid mixture 1, x1 = 0.731 | 0.0001449
298.2 K, Liquid mixture 2, x1 = 0.999 | 0.0001047
315.5 K, Liquid mixture 1, x1 = 0.725 | 0.0001473
315.5 K, Liquid mixture 2, x1 = 1 | 0.0001074
333.2 K, Liquid mixture 1, x1 = 0.718 | 0.0001508
333.2 K, Liquid mixture 2, x1 = 1 | 0.0001095
353.1 K, Liquid mixture 1, x1 = 0.71 | 0.0001551
353.1 K, Liquid mixture 2, x1 = 1 | 0.0001124
373 K, Liquid mixture 1, x1 = 0.702 | 0.0001595
373 K, Liquid mixture 2, x1 = 1 | 0.0001157

Fc1ccc(F)c(F)c1 [1,2,4-trifluorobenzene] + CCn1cc[n+](C)c1.O=S(=O)([N-]S(=O)(=O)C(F)(F)F)C(F)(F)F
molar volume [m3/mol], [2]
Conditions | Liquid mixture 1, x1 = 0.891 | Liquid mixture 1, x1 = 0.892 | Liquid mixture 1, x1 = 0.893 | Liquid mixture 2, x1 = 0.977
362.4 K | – | – | 0.0001242 | 0.0001135
367.4 K | – | 0.0001247 | – | 0.000114
372.4 K | 0.0001252 | – | – | 0.0001145

Fc1cc(F)cc(F)c1 [1,3,5-trifluorobenzene] + CCn1cc[n+](C)c1.O=S(=O)([N-]S(=O)(=O)C(F)(F)F)C(F)(F)F
[2]
Conditions | molar volume [m3/mol]
283.5 K, Liquid mixture 1, x1 = 0.497 | 0.0001754
283.5 K, Liquid mixture 2, x1 = 1 | 0.0001013
298.2 K, Liquid mixture 1, x1 = 0.498 | 0.0001762
298.2 K, Liquid mixture 2, x1 = 1 | 0.0001035
316.6 K, Liquid mixture 1, x1 = 0.487 | 0.000179
316.6 K, Liquid mixture 2, x1 = 1 | 0.0001057
333.2 K, Liquid mixture 1, x1 = 0.482 | 0.0001815
333.2 K, Liquid mixture 2, x1 = 1 | 0.000108
353.1 K, Liquid mixture 1, x1 = 0.478 | 0.000183
353.1 K, Liquid mixture 2, x1 = 1 | 0.0001108
373 K, Liquid mixture 1, x1 = 0.482 | 0.0001846
373 K, Liquid mixture 2, x1 = 1 | 0.0001144

Fc1cccc(F)c1 [1,3-difluorobenzene] + CCn1cc[n+](C)c1.O=S(=O)([N-]S(=O)(=O)C(F)(F)F)C(F)(F)F
[2]
Conditions | molar volume [m3/mol]
283.3 K, Liquid mixture 1, x1 = 0.757 | 0.000134
283.3 K, Liquid mixture 2, x1 = 1 | 9.82e-05
294.4 K, Liquid mixture 1, x1 = 0.755 | 0.0001363
294.4 K, Liquid mixture 2, x1 = 1 | 9.93e-05
316.1 K, Liquid mixture 1, x1 = 0.753 | 0.0001404
316.1 K, Liquid mixture 2, x1 = 1 | 0.000102
333.3 K, Liquid mixture 1, x1 = 0.748 | 0.0001429
333.3 K, Liquid mixture 2, x1 = 1 | 0.000104
353.1 K, Liquid mixture 1, x1 = 0.742 | 0.000146
353.1 K, Liquid mixture 2, x1 = 1 | 0.0001065
373 K, Liquid mixture 1, x1 = 0.736 | 0.0001492
373 K, Liquid mixture 2, x1 = 1 | 0.000109

Fc1ccc(F)cc1 [1,4-difluorobenzene] + CCn1cc[n+](C)c1.O=S(=O)([N-]S(=O)(=O)C(F)(F)F)C(F)(F)F
[2]
Conditions | molar volume [m3/mol]
283.4 K, Liquid mixture 1, x1 = 0.816 | 0.0001239
283.4 K, Liquid mixture 2, x1 = 1 | 9.76e-05
294.4 K, Liquid mixture 1, x1 = 0.814 | 0.0001255
294.4 K, Liquid mixture 2, x1 = 1 | 9.88e-05
316.2 K, Liquid mixture 1, x1 = 0.81 | 0.0001288
316.2 K, Liquid mixture 2, x1 = 1 | 0.000101
343.2 K, Liquid mixture 1, x1 = 0.807 | 0.0001337
343.2 K, Liquid mixture 2, x1 = 0.999 | 0.0001038
353.1 K, Liquid mixture 1, x1 = 0.804 | 0.0001354
353.1 K, Liquid mixture 2, x1 = 0.999 | 0.000105
373 K, Liquid mixture 1, x1 = 0.799 | 0.0001387
373 K, Liquid mixture 2, x1 = 0.999 | 0.0001069

Fc1ccccc1 [fluorobenzene] + CCn1cc[n+](C)c1.O=S(=O)([N-]S(=O)(=O)C(F)(F)F)C(F)(F)F
[2]
Conditions | molar volume [m3/mol]
282.5 K, Liquid mixture 1, x1 = 0.875 | 0.0001125
282.5 K, Liquid mixture 2, x1 = 0.992 | 9.31e-05
297.9 K, Liquid mixture 1, x1 = 0.875 | 0.0001137
297.9 K, Liquid mixture 2, x1 = 0.991 | 9.45e-05
315.5 K, Liquid mixture 1, x1 = 0.874 | 0.000115
315.5 K, Liquid mixture 2, x1 = 0.99 | 9.61e-05
333.2 K, Liquid mixture 1, x1 = 0.872 | 0.0001169
333.2 K, Liquid mixture 2, x1 = 0.989 | 9.84e-05
353.1 K, Liquid mixture 1, x1 = 0.869 | 0.0001197
353.1 K, Liquid mixture 2, x1 = 0.989 | 0.000101
373 K, Liquid mixture 1, x1 = 0.865 | 0.0001231
373 K, Liquid mixture 2, x1 = 0.989 | 0.0001035

Fc1cc(F)c(F)c(F)c1F [pentafluorobenzene] + CCn1cc[n+](C)c1.O=S(=O)([N-]S(=O)(=O)C(F)(F)F)C(F)(F)F
[2]
Conditions | molar volume [m3/mol]
283.4 K, Liquid mixture 1, x1 = 0.715 | 0.0001484
283.4 K, Liquid mixture 2, x1 = 0.997 | 0.0001093
298.2 K, Liquid mixture 1, x1 = 0.704 | 0.0001523
298.2 K, Liquid mixture 2, x1 = 0.998 | 0.0001109
316.6 K, Liquid mixture 1, x1 = 0.696 | 0.0001552
316.6 K, Liquid mixture 2, x1 = 0.997 | 0.0001139
333.2 K, Liquid mixture 1, x1 = 0.681 | 0.0001605
333.2 K, Liquid mixture 2, x1 = 1 | 0.0001155
353.1 K, Liquid mixture 1, x1 = 0.669 | 0.0001652
353.1 K, Liquid mixture 2, x1 = 1 | 0.0001187
373 K, Liquid mixture 1, x1 = 0.657 | 0.0001692
373 K, Liquid mixture 2, x1 = 1 | 0.0001228
